{"source": "patent US7863326B2", "about": "“Pharmaceutical compositions comprising ascorbic acid for the treatment of fungal superinfections and fungal recurrences” (Polichem S.A., priority 2003, dated 2011)", "key": {"[1]": {"tested_on": "Candida", "experiment": "Double-blind placebo-controlled study of preventing Candida reinfection after miconazole in women with recurrent vaginal candidiasis", "assay_type": "in vivo", "description": "Forty women with an exacerbation of recurrent vaginal candidiasis underwent a follow up preventative therapy with ascorbic acid. Most important inclusion criteria were: adult women in fertile age (18-50); ≧3 episodes of acute vaginal candidiasis in the last 12 months; acute vaginal candidiasis in the last 14 days; eradication of Candida (fresh examination) after an appropriate miconazole treatment. Exclusion criteria were: severe vaginal infections; HIV positivity; diabetes; pregnant women. The design was double blind, parallel groups versus placebo.\nAfter completion of the standard treatment with miconazole, all the responders (patients with eradication of Candida at the end of treatment) were randomized to a standardized preventative vaginal application of ascorbic acid (in form of gel, containing 7.1% ascorbic acid as the only active ingredient, same composition as per the Example 1) or to an undistinguishable placebo. The product was applied once daily in the evening, before going to bed, for 6 consecutive days. The 6-day cycle was repeated monthly for 6 consecutive months, starting on the first month immediately after patient randomization; during the following 5 months, the therapeutic cycle with ascorbic acid was started on the day after termination of cyclic menses. Primary endpoint of the study was the occurrence of episodes of Candida reinfection, confirmed by fresh examination of the vaginal smear. In case of reinfection, this was treated with a further standard miconazole treatment and the follow up with ascorbic acid was continued immediately after confirmation of microbiological eradication. All patients in the ascorbic acid group terminated the study, 2 patients of placebo group were lost to follow up. […] The protection factor of ascorbic acid against Candida reinfection was 46% in this investigation."}, "[2]": {"tested_on": "experimental renal candidiasis", "conditions": "rats, orally supplemented to the diet; evident at very low dose, disappearing at a higher dose level; cited from earlier work"}, "[3]": {"tested_on": "Candida", "experiment": "Randomized double-blind placebo-controlled study of preventing Candida superinfection after standard metronidazole treatment", "assay_type": "in vivo, patients", "experimental": "Two hundred patients with a negative microbiology of their vaginal specimen after a standard metronidazole treatment have been included in a controlled study aimed at the evaluation of ascorbic acid capability to prevent Candida superinfection in those patients. The study was randomized, double blind, parallel groups versus placebo. As active treatment, a 6-day course of vaginal tablets, containing 250 mg silicon-coated ascorbic acid as per the Example 2, was given once monthly for 3 months starting after menses. Placebo was undistinguishable from active treatment. Ninety-five patients in the active group and 92 respectively in the placebo group terminated the study and were included in the efficacy analysis. […] The protection factor of ascorbic acid against Candida superinfection in this experiment was 40%."}}, "data": [{"smiles": "O=C1O[C@H]([C@@H](O)CO)C(O)=C1O", "note": "[ascorbic acid, L-ascorbic acid]", "values": [{"measurement": "episodes of reinfection", "setting": "[1]; 7.1% ascorbic acid vaginal gel once daily for 6 days, cycle repeated monthly for 6 months, reinfection confirmed by fresh examination of vaginal smear", "result": 15, "unit": "episodes"}, {"measurement": "acute infection:patient rate", "setting": "[1]; 7.1% ascorbic acid vaginal gel, 6-day cycles monthly for 6 months", "result": "0.75 /6 months"}, {"measurement": "protection factor against Candida reinfection", "setting": "[1]; versus placebo, 6 months", "result": 46, "unit": "%"}, {"measurement": "effect on the resistance to experimental renal candidiasis", "setting": "[2]", "result": "inconclusive"}, {"measurement": "patients with Candida superinfection (percent of group)", "setting": "[3]; vaginal tablets with 250 mg silicon-coated ascorbic acid, 6-day course once monthly for 3 months", "result": 9, "unit": "%"}, {"measurement": "patients with Candida superinfection", "setting": "[3]; vaginal tablets with 250 mg silicon-coated ascorbic acid, 6-day course once monthly for 3 months, 95 patients analysed", "result": 9, "unit": "patients"}, {"measurement": "protection factor against Candida superinfection", "setting": "[3]; versus placebo, 3 months", "result": 40, "unit": "%"}]}]}
